# Measured values: US20120245135A1, “Gallium Complexes, Pharmaceutical Compositions And Methods Of Use” (Genta Incorporated, priority 2011, published 2012)
# Assay: Oral bioavailability of gallium complexes in dogs (plasma gallium by ICP-MS)
# Details: for maximum blood concentration of gallium achieved / blood levels of gallium reached (peak blood concentration of gallium): 2.5 mg/kg; for blood levels of gallium reached by oral controls: oral positive control (all three dogs) and oral negative control (highest value, one animal), Beagle dogs
# Method: Pharmacokinetics, oral bioavailability and bioequivalency of gallium-ligand complexes according to the invention were determined in dogs following a single oral gavage administration of the compounds as a suspension/solution in water in fasted male Beagle dogs at 2.5 mg/kg dog body weight or following administration of a single total dose of 30 mg in a capsule formulation (for histidine and carnosine only). The following complexes were selected for testing: gallium picolinate, gallium kojate, gallium (+)-mandalate, gallium (−)-mandalate, gallium tryptophanate, gallium acetyl piperidinate, gallium prolinate both neutral and ionic; and the capsules prepared from histidine and carnosine. Each compound was studied in groups of three fasted animals. Nine serial blood samples were collected from each animal by venipuncture of a jugular vein at the following time points post-dose: 0 (predose), 0.25, 0.5, 0.75, 1, 2, 4, 8, and 16 hours post-dose. Blood samples were collected into chilled tubes containing heparin as the anticoagulant.
# Oral bioavailability of the test gallium complex was evaluated in each of the three animals in each test group.
# [1] = single oral gavage, suspension/solution in water, fasted male Beagle dogs
compound,measurement,setting,value
N[C@@H](Cc1c[nH]c2ccccc12)C(=O)[O-].N[C@@H](Cc1c[nH]c2ccccc12)C(=O)[O-].N[C@@H](Cc1c[nH]c2ccccc12)C(=O)[O-].[Ga+3] [gallium tryptophanate complex],maximum blood concentration of gallium achieved,[1],about 500 ng/ml
OCC1=CC2=[O+][Ga-3]34([O]C2=CO1)([O]C1=COC(CO)=CC1=[O+]3)[O]C1=COC(CO)=CC1=[O+]4 [gallium kojate],blood levels of gallium reached (peak blood concentration of gallium),"male, Beagle, dog, in vivo, po","at least 1,000 ng/ml"
O=C1[O][Ga-3]23([O]C(=O)[C@H](c4ccccc4)[OH+]2)([O]C(=O)[C@H](c2ccccc2)[OH+]3)[OH+]C1c1ccccc1 (stereo partly drawn) [gallium (+)-mandalate],blood levels of gallium reached (peak blood concentration of gallium),"male, Beagle, dog, in vivo, po","at least 1,000 ng/ml"
O=C([O-])C1CCCN1.O=C([O-])C1CCCN1.O=C([O-])C1CCCN1.[Ga+3] (stereo not drawn) [gallium prolinate neutral complex],maximum blood concentration of gallium achieved,[1],about 300 ng/ml
O=C1[O][Ga-3]23([O]C(=O)c4cccc[n+]42)([O]C(=O)c2cccc[n+]23)[n+]2ccccc21 [gallium picolinate],blood levels of gallium reached (peak blood concentration of gallium),"male, Beagle, dog, in vivo, po","at least 1,000 ng/ml"
O=C1[O][Ga-3]23([O]C(=O)[C@@H](c4ccccc4)[OH+]2)([O]C(=O)[C@@H](c2ccccc2)[OH+]3)[OH+]C1c1ccccc1 (stereo partly drawn) [gallium (−)-mandalate],blood levels of gallium reached (peak blood concentration of gallium),"male, Beagle, dog, in vivo, po","at least 1,000 ng/ml"
"Cc1occc(=O)c1[O-].Cc1occc(=O)c1[O-].Cc1occc(=O)c1[O-].[Ga+3] [gallium maltolate, reference compound]",blood levels of gallium reached by oral controls,,"≥ 1,000 ng/ml"
"O=[N+]([O-])[O-].O=[N+]([O-])[O-].O=[N+]([O-])[O-].[Ga+3] [gallium nitrate, reference compound]",blood levels of gallium reached by oral controls,,≤ 700 ng/mL
CC1=[O+][Ga-3]23([O]C(=O)C4CCCCN14)([O]C(=O)C1CCCCN1C(C)=[O+]2)[O]C(=O)C1CCCCN1C(C)=[O+]3 (stereo not drawn) [gallium acetyl piperidinate complex],maximum blood concentration of gallium achieved,"male, Beagle, dog, in vivo, po",about 200 ng/ml
